Laboratory results: patent US20230017312A1, “CENTRALLY ACTIVE P38ALPHA INHIBITING COMPOUNDS” (Synovo GmbH, priority 2019, published 2023)

Legend:
IL-6 [1] = experiment: LPS-stimulated IL-6 production, spleen; type: cell-based; details: compound 10 nM
TNFa [2] = experiment: LPS-stimulated TNFa production, spleen; type: cell-based; details: compound 10 nM
IL-6 [3] = experiment: LPS-stimulated IL-6 production, hBuffy Coat; type: cell-based, human; details: compound 1 nM
Description: (§1) The substances can be tested by mixing them with immune cells subject to stimulus and measuring the resulting inflammatory response. A standard assay involves the application of lipopolysaccharide (e.g. 10 μg/mL) to human blood derived immune cells and then detecting the concentration of cytokines (IL-6, TNFa) after 24 h. When tested in this way, the described compounds have the following effects as recorded in Table 2.

TNFa [4] = experiment: LPS-stimulated TNFa production, hBuffy Coat; type: cell-based, human; details: compound 1 nM
Description: as §1

IL-6 [5] = experiment: LPS-stimulated IL-6 production, BL6 Blood; type: cell-based; details: compound 100 nM
TNFa [6] = experiment: LPS-stimulated TNFa production, BL6 Blood; type: cell-based; details: compound 100 nM

Structure (SMILES) | melting point | Amount of cytokine produced as % control: IL_6 Spleen (100 ng LPS) 10 nM (IL-6 [1]) | Amount of cytokine produced as % control: TNFa Spleen (100 ng LPS) 10 nM (TNFa [2]) | Amount of cytokine produced as % control: IL-6 hBuffy Coat (100 ng LPS) 1 nM (IL-6 [3]) | Amount of cytokine produced as % control: TNFa hBuffy Coat (100 ng LPS) 1 nM (TNFa [4]) | Amount of cytokine produced as % control: IL-6 BL6 Blood (500 ng LPS) 100 nM (IL-6 [5]) | Amount of cytokine produced as % control: TNFa BL6 Blood (500 ng LPS) 100 nM (TNFa [6])
COC(=O)c1ccc2c(c1)C(=O)c1ccc(Nc3ccc(F)cc3F)cc1OC2 [Compound 15a, 3-((2,4-Difluorophenyl)amino)-11-oxo-6,11-dihydrobenzo[b,e]oxepin-9-carboxylmethylester] | 162.7 °C | – | – | – | – | – | –
C[S+]([O-])c1ccc(-c2nc(-c3ccncc3)c(-c3ccc(F)cc3)[nH]2)cc1 (stereo not shown) [SB203580] | – | 10 % control | 11 % control | 61 % control | 85 % control | 22 % control | 4 % control
